Experimental data published in patent publication US12570642B2, “GLP-IR modulating compounds” (Gilead Sciences, Inc., priority 2021, dated 2026).

target: GLP-1R (Homo sapiens, UniProt P43220); assay: GLP-1R Activation - cAMP Assay; format: cell-based; details: cAMP increase in CHO cells stably expressing GLP-1R; each compound run on one of the two cAMP assays (Assay 1 or Assay 2, not specified)
Outline: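 CHO cells stably expressing GLP-1R, plated at 1,000 cells/well overnight, then equilibrated 1 h in HBSS with 20 mM Hepes and 0.1% BSA. Agonist added as 10-point dose response for 30 min at 37 °C. cAMP measured by HTRF (Cisbio Gs Dynamic kit); EC50 from sigmoidal fit.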

Sequence of GLP-1R (P43220 24-463): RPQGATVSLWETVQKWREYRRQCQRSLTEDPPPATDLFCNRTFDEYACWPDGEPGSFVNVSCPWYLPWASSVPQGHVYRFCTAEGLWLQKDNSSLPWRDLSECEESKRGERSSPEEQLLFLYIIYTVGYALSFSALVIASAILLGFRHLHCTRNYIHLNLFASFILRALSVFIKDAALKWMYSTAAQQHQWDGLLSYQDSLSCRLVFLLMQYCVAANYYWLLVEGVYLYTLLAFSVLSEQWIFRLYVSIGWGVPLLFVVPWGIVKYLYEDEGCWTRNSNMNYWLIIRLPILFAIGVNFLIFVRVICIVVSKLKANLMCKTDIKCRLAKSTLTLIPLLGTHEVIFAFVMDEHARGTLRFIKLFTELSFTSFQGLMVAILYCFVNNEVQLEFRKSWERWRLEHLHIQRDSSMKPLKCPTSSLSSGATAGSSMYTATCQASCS

SMILES	EC50
COCCn1c(Cc2c(F)cc(-c3cccc(OCc4ccc(-n5ccnn5)cc4Cl)n3)c(F)c2F)nc2ccc(C(=O)O)cc21 [Example 403, 2-(4-(6-((2-chloro-4-(1H-1,2,3-triazol-1-yl)benzyl)oxy)pyridin-2-yl)-2,3,6-trifluorobenzyl)-1-(2-methoxyethyl)-1H-benzo[d]imidazole-6-carboxylic acid]	0.081 nM
CC1(C)COC[C@H]1n1c(Cc2cc(F)c(-c3ccnc(OCc4ccc(Cl)cc4Cl)n3)cc2F)nc2c(F)cc(C(=O)O)cc21 [Example 404, (S)-2-(4-(2-((2,4-dichlorobenzyl)oxy)pyrimidin-4-yl)-2,5-difluorobenzyl)-1-(4,4-dimethyltetrahydrofuran-3-yl)-4-fluoro-1H-benzo[d]imidazole-6-carboxylic acid]	0.068 nM
CC1(C)COC[C@H]1n1c(Cc2cc(F)c(-c3cccc(OCc4cnc(-n5ccnn5)cc4C(F)(F)F)n3)cc2F)nc2ccc(C(=O)O)cc21 [Example 414, (S)-2-(4-(6-((6-(1H-1,2,3-triazol-1-yl)-4-(trifluoromethyl)pyridin-3-yl)methoxy)pyridin-2-yl)-2,5-difluorobenzyl)-1-(4,4-dimethyltetrahydrofuran-3-yl)-1H-benzo[d]imidazole-6-carboxylic acid]	0.261 nM
CC1(C)COC[C@H]1n1c(Cc2c(F)cc(-c3ccc(Cl)c(OCc4ccc(C#N)cc4)n3)c(F)c2F)nc2ccc(C(=O)O)cc21 [Example 415, (S)-2-(4-(5-chloro-6-((4-cyanobenzyl)oxy)pyridin-2-yl)-2,3,6-trifluorobenzyl)-1-(4,4-dimethyltetrahydrofuran-3-yl)-1H-benzo[d]imidazole-6-carboxylic acid]	0.491 nM
CC1(C)COC[C@H]1n1c(Cc2c(F)cc(-c3ccc(Cl)c(OCc4ccc(C#N)cc4F)n3)c(F)c2F)nc2ccc(C(=O)O)cc21 [Example 416, (S)-2-(4-(5-chloro-6-((4-cyano-2-fluorobenzyl)oxy)pyridin-2-yl)-2,3,6-trifluorobenzyl)-1-(4,4-dimethyltetrahydrofuran-3-yl)-1H-benzo[d]imidazole-6-carboxylic acid]	0.235 nM
CC1(C)COC[C@H]1n1c(Cc2cc(F)c(-c3cccc(OCc4ccc(C#N)cc4)n3)cc2F)nc2cc(F)c(C(=O)O)cc21 [Example 418, (S)-2-(4-(6-((4-cyanobenzyl)oxy)pyridin-2-yl)-2,5-difluorobenzyl)-1-(4,4-dimethyltetrahydrofuran-3-yl)-5-fluoro-1H-benzo[d]imidazole-6-carboxylic acid]	0.199 nM
CC1(C)COC[C@H]1n1c(Cc2cc(F)c(-c3cccc(OCc4ccc(C#N)cc4)n3)cc2F)nc2cnc(C(=O)O)cc21 [Example 421, (S)-2-(4-(6-((4-cyanobenzyl)oxy)pyridin-2-yl)-2,5-difluorobenzyl)-1-(4,4-dimethyltetrahydrofuran-3-yl)-1H-imidazo[4,5-c]pyridine-6-carboxylic acid]	3.02 nM
CC1(C)COC[C@H]1n1c(Cc2cc(F)c(-c3cccc(OCc4ccc(C#N)cc4F)n3)cc2F)nc2cnc(C(=O)O)cc21 [Example 422, (S)-2-(4-(6-((4-cyano-2-fluorobenzyl)oxy)pyridin-2-yl)-2,5-difluorobenzyl)-1-(4,4-dimethyltetrahydrofuran-3-yl)-1H-imidazo[4,5-c]pyridine-6-carboxylic acid]	3.16 nM
CC1(C)COC[C@H]1n1c(Cc2cc(F)c(-c3cccc(OCc4ccc(OCC(F)(F)F)nc4)n3)cc2F)nc2ccc(C(=O)O)cc21 [Example 424, (S)-2-(2,5-difluoro-4-(6-((6-(2,2,2-trifluoroethoxy)pyridin-3-yl)methoxy)pyridin-2-yl)benzyl)-1-(4,4-dimethyltetrahydrofuran-3-yl)-1H-benzo[d]imidazole-6-carboxylic acid]	0.59 nM
CC1(C)COC[C@H]1n1c(Cc2cc(F)c(-c3cccc(OCc4ccc(C(F)(F)F)nc4)n3)cc2F)nc2ccc(C(=O)O)cc21 [Example 425, (S)-2-(2,5-difluoro-4-(6-((6-(trifluoromethyl)pyridin-3-yl)methoxy)pyridin-2-yl)benzyl)-1-(4,4-dimethyltetrahydrofuran-3-yl)-1H-benzo[d]imidazole-6-carboxylic acid]	0.494 nM

The remaining lines, values ahead:

EC50	SMILES
0.337 nM	CC1(C)COC[C@H]1n1c(Cc2cc(F)c(-c3nccc(OCc4ccc(Cl)cc4F)n3)cc2F)nc2ccc(C(=O)O)cc21 [Example 405, (S)-2-(4-(4-((4-chloro-2-fluorobenzyl)oxy)pyrimidin-2-yl)-2,5-difluorobenzyl)-1-(4,4-dimethyltetrahydrofuran-3-yl)-1H-benzo[d]imidazole-6-carboxylic acid]
10.8 nM	O=C(O)c1ccc2nc(Cc3cc(F)c(-c4cccc(OCc5ccc(Cl)cc5F)n4)cc3F)n(C34COCC(C3)C4)c2c1 [Example 406, 1-(3-oxabicyclo[3.1.1]heptan-1-yl)-2-(4-(6-((4-chloro-2-fluorobenzyl)oxy)pyridin-2-yl)-2,5-difluorobenzyl)-1H-benzo[d]imidazole-6-carboxylic acid]
0.349 nM	CC1(C)COC[C@H]1n1c(Cc2cc(F)c(-c3ncc(F)c(OCc4ccc(Cl)cc4F)n3)cc2F)nc2ccc(C(=O)O)cc21 [Example 410, (S)-2-(4-(4-((4-chloro-2-fluorobenzyl)oxy)-5-fluoropyrimidin-2-yl)-2,5-difluorobenzyl)-1-(4,4-dimethyltetrahydrofuran-3-yl)-1H-benzo[d]imidazole-6-carboxylic acid]
0.281 nM	CC1(C)COC[C@H]1n1c(Cc2cc(F)c(-c3cccc(OCc4ccc(C(F)(F)F)cc4C#N)n3)cc2F)nc2ccc(C(=O)O)cc21 [Example 413, (S)-2-(4-(6-((2-cyano-4-(trifluoromethyl)benzyl)oxy)pyridin-2-yl)-2,5-difluorobenzyl)-1-(4,4-dimethyltetrahydrofuran-3-yl)-1H-benzo[d]imidazole-6-carboxylic acid]
0.19 nM	CC1(C)COC[C@H]1n1c(Cc2cc(F)c(-c3cccc(OCc4ccc(Cl)cc4F)n3)cc2F)nc2cc(F)c(C(=O)O)cc21 [Example 417, (S)-2-(4-(6-((4-chloro-2-fluorobenzyl)oxy)pyridin-2-yl)-2,5-difluorobenzyl)-1-(4,4-dimethyltetrahydrofuran-3-yl)-5-fluoro-1H-benzo[d]imidazole-6-carboxylic acid]
0.112 nM	CC1(C)COC[C@H]1n1c(Cc2cc(F)c(-c3cccc(OCc4ccc(C#N)cc4F)n3)cc2F)nc2cc(F)c(C(=O)O)cc21 [Example 419, (S)-2-(4-(6-((4-cyano-2-fluorobenzyl)oxy)pyridin-2-yl)-2,5-difluorobenzyl)-1-(4,4-dimethyltetrahydrofuran-3-yl)-5-fluoro-1H-benzo[d]imidazole-6-carboxylic acid]
0.413 nM	CC1(C)COC[C@H]1n1c(Cc2cc(F)c(-c3cccc(OCc4ccc(C(F)F)nc4)n3)cc2F)nc2ccc(C(=O)O)cc21 [Example 420, (S)-2-(4-(6-((6-(difluoromethyl)pyridin-3-yl)methoxy)pyridin-2-yl)-2,5-difluorobenzyl)-1-(4,4-dimethyltetrahydrofuran-3-yl)-1H-benzo[d]imidazole-6-carboxylic acid]
2.54 nM	CC1(C)COC[C@H]1n1c(Cc2cc(F)c(-c3cccc(OCc4ccc(Cl)cc4F)n3)cc2F)nc2cnc(C(=O)O)cc21 [Example 423, (S)-2-(4-(6-((4-chloro-2-fluorobenzyl)oxy)pyridin-2-yl)-2,5-difluorobenzyl)-1-(4,4-dimethyltetrahydrofuran-3-yl)-1H-imidazo[4,5-c]pyridine-6-carboxylic acid]
